Measurements published in ChEMBL document CHEMBL1201862, “PubChem BioAssay data set” (2004).
Activity calls are given as the source filed them.

How the values were obtained:
[1] = biological target: T1, Short transient receptor potential channel 4 (Mus musculus, UniProt Q9QUQ5); experiment: block of DAMGO-driven TRPC4 calcium entry – cell-based, HEK293 TRPC4/mu-opioid, Fluo-4 calcium, dose response (AID 434942); assay type: functional;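 further: potency of inhibitors blocking the TRPC4 calcium response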
T1 sequence (Q9QUQ5 whole entry): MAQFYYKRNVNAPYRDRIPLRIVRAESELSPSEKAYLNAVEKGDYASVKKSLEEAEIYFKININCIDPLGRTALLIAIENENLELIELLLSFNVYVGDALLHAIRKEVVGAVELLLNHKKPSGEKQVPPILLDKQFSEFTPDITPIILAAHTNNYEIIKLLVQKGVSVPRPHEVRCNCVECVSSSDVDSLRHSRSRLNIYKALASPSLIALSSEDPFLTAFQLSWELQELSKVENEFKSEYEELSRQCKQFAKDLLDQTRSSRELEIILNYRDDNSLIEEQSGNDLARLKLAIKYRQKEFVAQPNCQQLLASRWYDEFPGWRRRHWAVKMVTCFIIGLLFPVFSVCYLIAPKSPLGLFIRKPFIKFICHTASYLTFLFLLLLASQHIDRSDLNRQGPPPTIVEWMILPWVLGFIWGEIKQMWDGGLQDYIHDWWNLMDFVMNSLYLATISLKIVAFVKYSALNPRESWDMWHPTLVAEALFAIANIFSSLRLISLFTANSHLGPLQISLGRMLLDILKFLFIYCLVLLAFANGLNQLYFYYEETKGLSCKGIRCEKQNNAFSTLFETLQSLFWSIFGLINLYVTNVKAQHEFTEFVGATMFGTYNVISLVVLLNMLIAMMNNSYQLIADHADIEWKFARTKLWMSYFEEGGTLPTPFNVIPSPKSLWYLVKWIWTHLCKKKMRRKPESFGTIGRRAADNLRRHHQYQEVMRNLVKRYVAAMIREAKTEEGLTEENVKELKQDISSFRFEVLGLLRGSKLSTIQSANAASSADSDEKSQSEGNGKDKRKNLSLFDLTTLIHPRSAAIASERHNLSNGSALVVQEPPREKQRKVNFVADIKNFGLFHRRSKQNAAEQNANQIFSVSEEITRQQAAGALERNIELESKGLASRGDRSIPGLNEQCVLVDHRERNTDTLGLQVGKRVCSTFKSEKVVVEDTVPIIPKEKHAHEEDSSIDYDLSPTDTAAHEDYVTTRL

[2] = biological target: Induced myeloid leukemia cell differentiation protein Mcl-1 (Homo sapiens, UniProt Q07820); assay type: functional
[3] = biological target: FAD-linked sulfhydryl oxidase ALR (Homo sapiens, UniProt P55789); experiment: ALR-catalysed DTT oxidation blockers – biochemical, H2O2 detection, luminescence, cherry-pick, dose response (AID 493248)
[4] = biological target: T2, Heat shock factor protein 1 (Mus musculus, UniProt P38532); experiment: enhancement of HSF1-driven luciferase signal – cell-based, NIH3T3, luminescence, dose retest, confirmation (AID 435004); assay type: functional;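 further: stress induced by proteasome inhibitor MG132 added 30 min after compound; luciferase reporter driven by HSF1 response element in NIH3T3 cells; actives raise luminescence as potentiators of the MG132 stress response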
T2 sequence (P38532 whole entry): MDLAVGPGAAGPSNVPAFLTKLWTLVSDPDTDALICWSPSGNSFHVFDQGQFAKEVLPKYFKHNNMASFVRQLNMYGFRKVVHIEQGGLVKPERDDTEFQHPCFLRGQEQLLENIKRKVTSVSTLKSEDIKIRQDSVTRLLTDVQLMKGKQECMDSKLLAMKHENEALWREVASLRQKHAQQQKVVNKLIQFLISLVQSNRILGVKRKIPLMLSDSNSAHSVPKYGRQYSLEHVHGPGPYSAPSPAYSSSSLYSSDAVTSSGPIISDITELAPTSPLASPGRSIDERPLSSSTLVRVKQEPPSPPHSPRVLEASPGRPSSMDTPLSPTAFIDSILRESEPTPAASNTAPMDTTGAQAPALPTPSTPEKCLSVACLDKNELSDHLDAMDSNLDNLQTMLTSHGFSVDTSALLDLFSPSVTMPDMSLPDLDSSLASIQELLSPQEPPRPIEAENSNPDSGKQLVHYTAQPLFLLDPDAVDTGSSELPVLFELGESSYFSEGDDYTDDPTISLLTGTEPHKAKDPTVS

H9c2 = experiment: cells; assay type: functional, cell-based; conditions: Rattus norvegicus, H9c2, Myocardium
[5] = biological target: T3, Rac GTPase-activating protein 1 (Homo sapiens, UniProt Q9H0H5); experiment: blockers of MgcRacGAP-driven Rac1 GTP hydrolysis – biochemical, ADP Hunter fluorescence, primary and confirmatory, confirmation (AID 624330); assay type: functional
T3 sequence (Q9H0H5 whole entry): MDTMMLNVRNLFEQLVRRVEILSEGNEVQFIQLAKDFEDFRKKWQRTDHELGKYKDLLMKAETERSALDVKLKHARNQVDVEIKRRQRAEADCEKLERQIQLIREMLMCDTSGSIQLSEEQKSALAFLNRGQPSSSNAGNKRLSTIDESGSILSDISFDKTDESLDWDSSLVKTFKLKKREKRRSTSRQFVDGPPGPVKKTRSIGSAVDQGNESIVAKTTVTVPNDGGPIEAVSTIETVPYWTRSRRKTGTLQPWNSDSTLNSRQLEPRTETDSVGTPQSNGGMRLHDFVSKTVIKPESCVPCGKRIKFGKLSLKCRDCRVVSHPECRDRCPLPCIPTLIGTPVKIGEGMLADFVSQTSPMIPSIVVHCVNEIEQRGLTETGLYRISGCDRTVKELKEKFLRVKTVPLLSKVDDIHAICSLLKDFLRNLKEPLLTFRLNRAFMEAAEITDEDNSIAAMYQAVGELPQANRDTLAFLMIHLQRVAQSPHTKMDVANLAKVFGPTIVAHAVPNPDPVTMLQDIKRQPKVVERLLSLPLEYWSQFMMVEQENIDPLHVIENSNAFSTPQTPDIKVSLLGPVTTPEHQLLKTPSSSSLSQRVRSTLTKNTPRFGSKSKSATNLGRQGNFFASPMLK

[6] = Luminescence Cell-Based Dose Response HTS to Identify Activators of Luciferase Translation or Activity in H4 […] Cells. [Related pubchem assays: 1829 (Project Summary), 1814 (Primary HTS)]; assay type: functional
[7] = biological target: T4, Calpain-2 catalytic subunit (Sus scrofa, UniProt P43367); experiment: m-calpain protease blockers, concentration series – biochemical, fluorogenic peptide substrate, dose response (AID 1420); assay type: functional
T4 sequence (P43367 whole entry): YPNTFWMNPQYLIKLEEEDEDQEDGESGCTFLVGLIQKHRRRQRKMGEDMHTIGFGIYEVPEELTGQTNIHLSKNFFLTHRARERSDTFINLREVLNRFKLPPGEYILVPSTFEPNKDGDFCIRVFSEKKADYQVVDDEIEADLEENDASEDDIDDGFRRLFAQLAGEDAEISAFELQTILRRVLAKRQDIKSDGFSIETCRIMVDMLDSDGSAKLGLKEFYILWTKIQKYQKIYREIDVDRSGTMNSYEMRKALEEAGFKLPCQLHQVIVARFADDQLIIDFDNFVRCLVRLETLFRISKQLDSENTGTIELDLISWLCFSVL

H4 = experiment: Luminescence Cell-Based Dose Response HTS to Identify Activators of 5'UTR Stem-Loop Driven Prion Protein mRNA Translation in H4 Neuroglioblastoma Cells. [Related pubchem assays: 1829 (Project Summary), 1814 (Primary HTS)]; assay type: functional; conditions: Homo sapiens
[8] = Luminescence Cell-Based Dose Confirmation HTS to Identify Activators of 5'UTR Stem-Loop Driven Alpha-Synuclein mRNA Translation in H4 Neuroglioblastoma Cells. [Related pubchem assays: 1829 (Project Summary), 1814 (Primary HTS)]; assay type: functional
[9] = biological target: T5, Ubiquitin-conjugating enzyme E2 N (Homo sapiens, UniProt P61088); assay type: functional;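 further: Dose-response confirmation in a TR-FRET assay detecting UBC13-driven polyubiquitin chain formation, inhibition measured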
T5 sequence (P61088 whole entry): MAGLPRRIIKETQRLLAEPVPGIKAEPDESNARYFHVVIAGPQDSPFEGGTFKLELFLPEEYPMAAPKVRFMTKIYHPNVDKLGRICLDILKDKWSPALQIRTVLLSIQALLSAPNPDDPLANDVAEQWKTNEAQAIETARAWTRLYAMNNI

[10] = loss of viability in HepG2 cells – cell-based, CellTiter-Glo, cherry-picked, cytotoxicity control for Shn3 inhibitor project, dose response (AID 624134); assay type: functional
[11] = non-specific 3'UTR reporter inhibition in Clone20-Shn3RL – cell-based, Renilla luciferase, cherry-picked, counter-screen for Shn3 inhibitor project, dose response (AID 624133); assay type: functional
[12] = reduction of Shn3 3'UTR-driven luciferase in osteoblasts – cell-based, Clone20 osteoblasts, firefly luciferase, cherry-picked, dose response (AID 624132); assay type: functional;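 further: firefly luciferase luminescence from reporter carrying the Shn3 3'UTR in osteoblasts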
BJ [13] = experiment: BJ-TERT fibroblast viability loss – cell-based, RAS-independent, luminescence, dose response (AID 1933); assay type: functional; conditions: Homo sapiens
BJ [14] = experiment: cells; assay type: functional, cell-based; conditions: Homo sapiens
[15] = DRD fibroblast viability loss – cell-based, non-viral oncogenic, luminescence, dose response (AID 1934); assay type: functional; conditions: Homo sapiens
BJ [16] = experiment: BJ-TERT-LT-ST fibroblast viability loss – cell-based, RAS-independent, luminescence, dose response (AID 1935); assay type: functional; conditions: Homo sapiens;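 further: BJ fibroblasts immortalized with TERT plus LT and ST oncogenes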
Cytochrome P450 2C9 = Cytochrome P450 2C9 (Homo sapiens, UniProt P11712)
Cytochrome P450 2D6 = Cytochrome P450 2D6 (Homo sapiens, UniProt P10635);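 further: CYP2D6 member of a cytochrome P450 panel assay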
Cytochrome P450 2C19 = Cytochrome P450 2C19 (Homo sapiens, UniProt P33261); experiment: Cytochrome panel assay with activity outcomes. Panel member name: p450-cyp2c19 Compounds with AC50 equal or less than 10 uM are considered active; assay type: functional; conditions: read-out: AC50
Large T antigen = Large T antigen (Simian virus 40, UniProt P03070); assay type: functional, Betapolyomavirus macacae;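 further: Confirmatory-stage PubChem screen for compounds that inhibit SV40 T antigen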
Chain of Large T antigen (P03070 whole entry): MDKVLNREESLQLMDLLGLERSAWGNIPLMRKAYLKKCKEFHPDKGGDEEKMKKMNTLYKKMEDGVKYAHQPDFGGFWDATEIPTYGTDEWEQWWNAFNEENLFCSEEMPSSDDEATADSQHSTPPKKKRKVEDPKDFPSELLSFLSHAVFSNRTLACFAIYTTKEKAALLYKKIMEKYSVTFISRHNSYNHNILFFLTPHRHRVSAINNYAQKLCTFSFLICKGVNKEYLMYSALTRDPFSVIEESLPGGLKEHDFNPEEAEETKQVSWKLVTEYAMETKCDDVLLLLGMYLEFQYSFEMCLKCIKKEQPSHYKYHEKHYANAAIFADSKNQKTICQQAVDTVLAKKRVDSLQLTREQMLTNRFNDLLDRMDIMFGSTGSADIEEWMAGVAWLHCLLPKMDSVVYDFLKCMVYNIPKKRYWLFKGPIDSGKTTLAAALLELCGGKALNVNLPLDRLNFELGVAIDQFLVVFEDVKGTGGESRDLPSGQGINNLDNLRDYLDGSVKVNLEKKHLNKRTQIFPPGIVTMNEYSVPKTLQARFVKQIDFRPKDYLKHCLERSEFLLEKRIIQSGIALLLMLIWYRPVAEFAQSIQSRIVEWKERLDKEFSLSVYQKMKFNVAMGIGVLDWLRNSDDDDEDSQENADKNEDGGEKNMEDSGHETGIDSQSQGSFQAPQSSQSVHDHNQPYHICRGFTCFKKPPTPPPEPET

Chain of Induced myeloid leukemia cell differentiation protein Mcl-1 (Q07820 whole entry): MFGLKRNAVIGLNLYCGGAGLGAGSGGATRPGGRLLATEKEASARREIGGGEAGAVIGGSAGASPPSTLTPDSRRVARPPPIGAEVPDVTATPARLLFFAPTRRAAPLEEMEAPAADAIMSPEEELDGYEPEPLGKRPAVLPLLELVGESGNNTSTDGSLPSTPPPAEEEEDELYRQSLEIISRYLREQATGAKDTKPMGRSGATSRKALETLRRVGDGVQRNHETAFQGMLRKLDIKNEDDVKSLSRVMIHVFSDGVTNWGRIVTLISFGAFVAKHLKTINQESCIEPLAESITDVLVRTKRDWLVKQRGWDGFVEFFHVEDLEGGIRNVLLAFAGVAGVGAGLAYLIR
Chain of Cytochrome P450 2C9 (P11712 whole entry): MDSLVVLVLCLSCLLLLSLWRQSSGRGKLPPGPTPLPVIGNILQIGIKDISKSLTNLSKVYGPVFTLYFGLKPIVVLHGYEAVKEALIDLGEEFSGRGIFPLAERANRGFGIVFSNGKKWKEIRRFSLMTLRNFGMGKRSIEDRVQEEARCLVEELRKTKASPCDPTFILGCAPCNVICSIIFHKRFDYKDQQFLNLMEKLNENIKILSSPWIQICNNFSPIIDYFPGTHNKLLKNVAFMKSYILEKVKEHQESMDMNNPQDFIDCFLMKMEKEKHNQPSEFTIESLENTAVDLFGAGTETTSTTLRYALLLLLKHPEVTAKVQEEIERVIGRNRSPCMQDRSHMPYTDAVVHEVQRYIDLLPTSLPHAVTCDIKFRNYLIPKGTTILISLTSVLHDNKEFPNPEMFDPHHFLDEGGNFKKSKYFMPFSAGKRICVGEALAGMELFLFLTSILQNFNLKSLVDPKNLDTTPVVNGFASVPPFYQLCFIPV
Chain of FAD-linked sulfhydryl oxidase ALR (P55789 whole entry): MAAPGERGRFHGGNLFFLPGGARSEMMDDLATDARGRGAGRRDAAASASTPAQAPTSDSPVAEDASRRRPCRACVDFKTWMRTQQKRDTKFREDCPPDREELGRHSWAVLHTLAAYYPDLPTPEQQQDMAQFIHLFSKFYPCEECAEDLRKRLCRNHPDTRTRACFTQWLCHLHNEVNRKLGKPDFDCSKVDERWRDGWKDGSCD
Chain of Cytochrome P450 2D6 (P10635 whole entry): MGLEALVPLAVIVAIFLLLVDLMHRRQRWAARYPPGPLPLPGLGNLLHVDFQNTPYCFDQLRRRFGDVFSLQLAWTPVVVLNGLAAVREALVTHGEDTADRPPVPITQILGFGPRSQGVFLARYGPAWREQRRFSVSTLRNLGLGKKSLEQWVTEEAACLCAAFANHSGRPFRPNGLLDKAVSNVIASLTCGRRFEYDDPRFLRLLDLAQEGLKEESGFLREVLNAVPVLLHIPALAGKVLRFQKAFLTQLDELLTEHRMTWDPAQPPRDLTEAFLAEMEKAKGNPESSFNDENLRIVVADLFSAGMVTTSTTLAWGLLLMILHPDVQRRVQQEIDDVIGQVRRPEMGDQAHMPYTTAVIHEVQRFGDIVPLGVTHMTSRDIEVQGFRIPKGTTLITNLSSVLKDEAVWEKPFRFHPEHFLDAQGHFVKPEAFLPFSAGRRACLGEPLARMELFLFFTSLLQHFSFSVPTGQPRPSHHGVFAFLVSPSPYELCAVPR
Chain of Cytochrome P450 2C19 (P33261 whole entry): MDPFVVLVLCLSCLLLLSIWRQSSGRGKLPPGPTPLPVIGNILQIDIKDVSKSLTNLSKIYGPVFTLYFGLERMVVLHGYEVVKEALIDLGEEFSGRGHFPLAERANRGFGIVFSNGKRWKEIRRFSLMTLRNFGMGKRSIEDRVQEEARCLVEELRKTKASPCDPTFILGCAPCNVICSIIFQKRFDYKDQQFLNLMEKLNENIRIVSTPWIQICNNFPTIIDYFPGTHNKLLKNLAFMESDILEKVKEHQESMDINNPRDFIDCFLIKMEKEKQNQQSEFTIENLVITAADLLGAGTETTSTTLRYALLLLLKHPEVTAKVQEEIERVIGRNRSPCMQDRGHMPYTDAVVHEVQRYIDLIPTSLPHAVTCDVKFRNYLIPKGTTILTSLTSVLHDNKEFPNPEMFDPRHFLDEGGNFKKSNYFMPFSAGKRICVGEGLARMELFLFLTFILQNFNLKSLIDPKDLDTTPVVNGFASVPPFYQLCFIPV

## Cc1cccc(C(=O)Nc2sc(-c3ccccc3)cc2C(=O)O)c1
[1]
  EC50: 2.11 µM (active)

## Cc1cccc(NC2=NC(=O)/C(=C/C=C/c3ccco3)S2)c1
[2]
  IC50: 11.4 µM (active)

## Nc1cc(C(F)(F)F)ccc1Nc1ccccc1
[1]
  EC50: 4.22 µM (active)
[3]
  AC50: 14.6 µM (active)

## COC(=O)c1cc(S(=O)(=O)C(C)C)c([S+](C)[O-])s1 (stereo not drawn)
[4]
  EC50: 93.8 µM (active)

## COCCCN(Cc1ccco1)C(=O)Cn1ncc2c3ccccc3nc-2c1O
H9c2
  IC50: > 79 µM (inactive)

## COc1ccc(CN2CCN(Cc3ccccc3F)CC2)c(OC)c1
[5]
  IC50: 70.3 µM (active)
[1]
  EC50: 4.22 µM (active)

## Clc1ccccc1CSc1nc2cc[nH]cc-2n1
[1]
  EC50: 2.99 µM (active)

## NC(=O)c1ccc(-n2nnnc2Oc2ccccc2C(=O)N2CCOCC2)cc1
[6]
  EC50: 31.4 µM (inconclusive)
[7]
  IC50: 3.94 µM (not active)
H4
  EC50: > 120 µM (not active)
[8]
  EC50: 8.06 µM (active)

## CCC(C)[C@H](Nc1nc(-c2ccccc2)nc2c1oc1ccccc12)C(=O)O (stereo partly drawn)
[1]
  EC50: 7.5 µM (active)

## CN=C(S)N1CCN(C(c2ccccc2)c2ccccc2)CC1
[1]
  EC50: 8.41 µM (active)

## CN(CC(=O)Nc1ccc(F)cc1)C(=O)CCc1nc(O)c2ccccc2n1
H9c2
  IC50: > 79 µM (inactive)

## Cc1cc(C)cc(OCC(=O)Nc2cccc(-c3nc4ncccc4o3)c2)c1
H9c2
  IC50: > 79 µM (inactive)

## Cc1ccc(C)c(N2CCN(CCCNC(=O)CCC(=O)N3CCOc4ccc(Cl)cc43)CC2)c1
[9]
  IC50: > 20 µM (inactive)

## C=CC[C@@H]1Cc2c(Br)ccc(Br)c2[C@@H](CC=C)N1
[4]
  EC50: > 260 µM (inactive)

## CCn1c(NCc2c[nH]c3ccccc23)nc2ccccc21
[1]
  EC50: 3.35 µM (active)

## Cc1ccc(CNC(=O)[C@H](C)N2C(=O)N3CCc4c([nH]c5ccccc45)[C@@]3(C)C2=O)cc1
[4]
  EC50: > 260 µM (inactive)

## O=C(Nc1ccc2c(c1)nc1n2CCN(C2CCCCC2)C1)c1ccco1
[2]
  IC50: 6.52 µM (active)

## NS(=O)(=O)c1ccc(CCNCc2cc(Br)ccc2OCc2ccccc2F)cc1
[10]
  AC50: 36.9 µM (active)
[11]
  AC50: 8.75 µM (active)
[12]
  AC50: 4.65 µM (active)
[7]
  IC50: > 50 µM (not active)

## CC(C)Cn1c(N)c(C(=O)COC(=O)CCc2nc(O)c3ccccc3n2)c(=O)n(C)c1=O
H9c2
  IC50: > 79 µM (inactive)

## Cc1cn(Cc2ccccc2Cn2cc(C)c(=O)[nH]c2=O)c(=O)[nH]c1=O
[4]
  EC50: > 260 µM (inactive)

## Cc1nn2cc(-c3cccc(Cl)c3)cnc2c1Br
BJ [13]
  EC50: 17.4 µM (active)
BJ [14]
  EC50: 68.2 µM (active)
[15]
  EC50: 16 µM (active)
BJ [16]
  EC50: 20.3 µM (active)

## O=c1c2ccccc2sc2nc(C3CCCCC3)n(Cc3ccco3)c(=O)c12
[4]
  EC50: 47.8 µM (active)

## COc1cc(C(=O)Nc2ccc(C)cc2)c2ccccc2n1
BJ [13]
  EC50: 1.15 µM (inconclusive)
BJ [14]
  EC50: 22.9 µM (active)
[15]
  EC50: 0.707 µM (inconclusive)
BJ [16]
  EC50: 12.8 µM (inconclusive)

## C#CCOCCOCCOCCNc1nc(N2CCN(C(=O)[C@H](CCCCN)n3cc([C@@H](N)CO)nn3)CC2)nc(N2CCN(C(=O)[C@H](CCCCN)n3cc([C@@H](N)CC(C)C)nn3)CC2)n1
[9]
  IC50: > 20 µM (inactive)

## COc1ccc(-c2cc(C(=O)N(C)Cc3ccc(OC)c(OC)c3OC)c3ccccc3n2)cc1OC
H9c2
  IC50: > 79 µM (inactive)

## Oc1nc2cccc(Cl)c2c2ccccc12
H9c2
  IC50: 39.6 µM (inactive)

## COc1ccc(/C=C/C(=O)Oc2cc(O)cc(O)c2)cc1
[1]
  EC50: 3.76 µM (active)

## CCOc1cc(/C=N/NC(N)=O)cc(Br)c1OCC(=O)Nc1cccc2ccccc12
H9c2
  IC50: > 79 µM (inactive)

## COc1ccc(N(CC(=O)N/N=C/c2cccs2)S(=O)(=O)c2ccc(OC)c(OC)c2)cc1
Cytochrome P450 2C9
  AC50: 4.47 µM (inconclusive)
Cytochrome P450 2D6
  AC50: 31.6 µM (inconclusive)
Cytochrome P450 2C19
  AC50: 0.0178 µM (inconclusive)
H9c2
  IC50: > 79 µM (inactive)

## COc1cc(/C=N\Nc2nc(-c3cccs3)c(NC(C)=O)s2)ccc1O
Large T antigen
  IC50: 27.8 µM (active)
[2]
  IC50: 2.72 µM (active)
